Test results taken from patent US20130136712A1, “Malodor Control Compositions Comprising Malodor Control Polymers And Acid Catalysts And Methods Thereof” (priority 2011, published 2013).

Tests used:
[1] = Table 1, Accord A; cited from earlier work
[2] = benchmark for HMPs; cited from earlier work
[3] = Malodor control performance of HMPs, headspace SPME GC/MS of spiked test solution; details: 5 ml test solution spiked with 5 microliters; 2 hours room temperature, 30 minutes 35° C.; Control = 1.0
Procedure: This example illustrates the malodor efficacy of the HMPs of the present invention. Isovaleric acid was chosen as a chemical surrogate for body odor while butylamine was used as a representative for amine-containing odors such as fish, pet urine, etc. Hydrophobic greasy cooking odors were represented by aldehydes such as nonanal.
The solutions are first equilibrated at room temperature for 2 hours, then incubated at 35° C. for 30 minutes. The headspace of each vial is finally sampled using a polydimethyl siloxane (PDMS) / Solid-Phase-Micro-Extraction (SPME) fiber and analyzed by GC/MS. The reductions in head space concentrations of odor molecules are measured and the data are normalized to Control.
Lower numbers denote high levels of malodor molecules present in the solution that are attributed to high malodor control efficacy of polymers.

[4] = Sulfur odor control performance of zinc polymer complexes, headspace GC/MS; details: spiked with 3 parts-per-million; 2 hours room temperature, 30 minutes 35° C.; Control = 1.0
Procedure: Butanethiol and dipropoyl sulfide were chosen as chemical surrogates for sulfur containing odors such as kitchen (onion/garlic), sewage, etc. These two molecules also enable the assessment of efficacy of polymer for sulfur molecules having different degrees of hydrophobicity (e.g more hydrophobic dipropylsulfide is usually harder to mitigate with hydrophilic technologies such as cyclodextrin).
5 ml test solution was placed in a GC-MS vial and spiked with 3 parts-per-million of butanethiol or dipropylsulfide. The solutions were first equilibrated at room temperature for 2 hours, then incubated at 35° C. for 30 minutes. The headspace of each vial was finally sampled using a PDMS/SPME fiber and analyzed by GC/MS. The reductions in head space concentrations of sulfur molecules were measured and the data were normalized to Control (Table 9).

[5] = system: Soiled sponge samples (microbe reduction); experiment: Odor prevention performance, SOLARIS detection of acidic respiratory byproducts; assay type: cell-based; details: sponge treated 15 minutes, dried 12 hours; incubated 120 hrs at 37° C.
Procedure: The Control formulation containing no malodor control polymer or zinc salt, and Formulations containing individual polymers, zinc salts, and zinc-polymer complexes are compared for their effect on odor prevention, through microbe reduction.
Soiled sponge samples were cut into 1×6 cm strips and treated with the solutions (Table 10) for 15 minutes and dried at ambient temperature for 12 hours. The treated 1 cm strips were then cut into lx1 cm pieces, placed into SOLARIS scintillation vials, and 1 ml of MOPS buffer was added. The open vials were placed into outer SOLARIS vials containing thymolphthalein blue pH indicator and the vials were finally capped. The sealed vials were placed into a SOLARIS machine and incubated for 120 hrs at 37° C. Colorimetric measurements were conducted according to SOLARIS VIV protocol and the detection times of acidic respiratory byproducts were record (Table 10).

Compound: COc1ccccc1C=O [o-anisaldehyde]
- VP(torr) @25° C. [1]: 0.032 torr

Compound: CC(C)c1cccc(C(C)CC=O)c1 (stereo not shown) [Florhydral, 3-(3-Isopropyl-phenyl)-butyraldehyde]
- VP(torr) @25° C. [1]: 0.008 torr

Compound: CC(C=O)Cc1ccc(C(C)C)cc1 (stereo not drawn) [Cymal, Alpha-methyl-p-isopropyl phenyl propyl aldehyde]
- VP(torr) @25° C. [1]: 0.007 torr

Compound: C=CC(C)CCC=C(C)CCC=O (stereo not shown) [Floral Super]
- VP(torr) @25° C. [1]: 0.030 torr

Compound: COC1CC2CC1C1CC(C=O)CC21 (stereo not shown) [Scentenal, octahydro-5-methoxy-4,7-Methano-1H-indene-2-carboxaldehyde]
- VP(torr) @25° C. [1]: 0.010 torr

Compound: hydroxypropyl modified beta cyclodextrin
- ambient temperature water solubility (benchmark) [2]: ≥ 60 g/100 ml

Compound: C=CCCCCCCCCC=O [Intreleven Aldehyde, undec-10-en-1-al]
- VP(torr) @25° C. [1]: 0.060 torr

Compound: [Cl-].[Cl-].[Zn+2] [ZnCl2]
- Butylamine (Fish) head space concentration normalized to Control [3]: 0.0
- Isovaleric Acid (Body) head space concentration normalized to Control [3]: 1.0
- Nonanal (Grease) head space concentration normalized to Control [3]: 1.0
- Butanethiol head space concentration normalized to Control [4]: 0.8
- Dipropylsulfide head space concentration normalized to Control [4]: 1.0
- Respiratory Byproducts Detection Time [5]: 3.38 h
